Measurements reported in ChEMBL document CHEMBL1909046, “DrugMatrix in vitro pharmacology data”.

Experiments:
[1] = molecular target: T1, Cysteinyl leukotriene receptor 1 (Homo sapiens, UniProt Q9Y271); type: cell membranes, Membrane; settings: cho-k1; further: in other assays of this panel Not Active means under 50% inhibition at 10 µM
T1 sequence (Q9Y271 whole entry): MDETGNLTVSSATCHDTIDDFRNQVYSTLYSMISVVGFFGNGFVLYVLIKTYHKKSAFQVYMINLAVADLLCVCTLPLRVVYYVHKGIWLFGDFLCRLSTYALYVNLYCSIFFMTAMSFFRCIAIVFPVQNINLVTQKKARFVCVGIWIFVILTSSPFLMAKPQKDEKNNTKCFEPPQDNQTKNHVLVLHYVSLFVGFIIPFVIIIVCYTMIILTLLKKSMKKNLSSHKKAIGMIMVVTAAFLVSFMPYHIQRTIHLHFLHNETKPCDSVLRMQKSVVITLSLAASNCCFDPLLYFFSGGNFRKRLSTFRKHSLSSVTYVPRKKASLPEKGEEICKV

[2] = DRUGMATRIX: Potassium Channel [KATP] radioligand binding (ligand: [3H] Glyburide); type: cell membranes, Membrane; settings: hit-t15; Not Active = under 50% inhibition at 10 µM
[3] = DRUGMATRIX: Atrial Natriuretic Factor (ANF) radioligand binding (ligand: [125I] ANF (rat)); type: cell membranes, Cavia porcellus, Dunkin-Hartley, Adrenal gland, Membrane; settings: Not Active = under 50% inhibition at 10 µM
[4] = molecular target: 5-hydroxytryptamine receptor 6 (Homo sapiens, UniProt P50406); type: cell membranes, HeLa, Membrane; settings: hela; further: in other assays of this panel Not Active means under 50% inhibition at 10 µM
Glycine receptor = Glycine receptor (Rattus norvegicus, UniProt P22771+P24524+P07727+P20781); type: cell membranes, Wistar, Spinal cord, Membrane; further: in other assays of this panel Not Active means under 50% inhibition at 10 µM
Adenosine receptor A1 = molecular target: T2, Adenosine receptor A1 (Homo sapiens, UniProt P30542); type: cell membranes, CHO, Membrane; settings: cho;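 further: radioligand binding assay at the adenosine A1 receptor, with DPCPX serving as the labelled ligand; in other assays of this panel Not Active means under 50% inhibition at 10 µM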
T2 sequence (P30542 whole entry): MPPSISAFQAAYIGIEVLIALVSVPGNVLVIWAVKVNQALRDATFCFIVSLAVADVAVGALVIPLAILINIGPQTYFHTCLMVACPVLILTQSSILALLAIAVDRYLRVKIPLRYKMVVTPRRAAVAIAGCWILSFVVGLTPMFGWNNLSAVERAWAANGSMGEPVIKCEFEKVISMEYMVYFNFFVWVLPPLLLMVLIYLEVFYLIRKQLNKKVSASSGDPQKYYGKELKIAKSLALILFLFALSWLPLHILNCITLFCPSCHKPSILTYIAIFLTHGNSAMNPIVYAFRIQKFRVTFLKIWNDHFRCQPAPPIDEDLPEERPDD

Nitric oxide synthase 1 = Nitric oxide synthase 1 (Rattus norvegicus, UniProt P29476); type: tissue-based, Cerebellum; further: in other assays of this panel Not Active means under 50% inhibition at 10 µM
Sequence of Nitric oxide synthase 1 (P29476 whole entry): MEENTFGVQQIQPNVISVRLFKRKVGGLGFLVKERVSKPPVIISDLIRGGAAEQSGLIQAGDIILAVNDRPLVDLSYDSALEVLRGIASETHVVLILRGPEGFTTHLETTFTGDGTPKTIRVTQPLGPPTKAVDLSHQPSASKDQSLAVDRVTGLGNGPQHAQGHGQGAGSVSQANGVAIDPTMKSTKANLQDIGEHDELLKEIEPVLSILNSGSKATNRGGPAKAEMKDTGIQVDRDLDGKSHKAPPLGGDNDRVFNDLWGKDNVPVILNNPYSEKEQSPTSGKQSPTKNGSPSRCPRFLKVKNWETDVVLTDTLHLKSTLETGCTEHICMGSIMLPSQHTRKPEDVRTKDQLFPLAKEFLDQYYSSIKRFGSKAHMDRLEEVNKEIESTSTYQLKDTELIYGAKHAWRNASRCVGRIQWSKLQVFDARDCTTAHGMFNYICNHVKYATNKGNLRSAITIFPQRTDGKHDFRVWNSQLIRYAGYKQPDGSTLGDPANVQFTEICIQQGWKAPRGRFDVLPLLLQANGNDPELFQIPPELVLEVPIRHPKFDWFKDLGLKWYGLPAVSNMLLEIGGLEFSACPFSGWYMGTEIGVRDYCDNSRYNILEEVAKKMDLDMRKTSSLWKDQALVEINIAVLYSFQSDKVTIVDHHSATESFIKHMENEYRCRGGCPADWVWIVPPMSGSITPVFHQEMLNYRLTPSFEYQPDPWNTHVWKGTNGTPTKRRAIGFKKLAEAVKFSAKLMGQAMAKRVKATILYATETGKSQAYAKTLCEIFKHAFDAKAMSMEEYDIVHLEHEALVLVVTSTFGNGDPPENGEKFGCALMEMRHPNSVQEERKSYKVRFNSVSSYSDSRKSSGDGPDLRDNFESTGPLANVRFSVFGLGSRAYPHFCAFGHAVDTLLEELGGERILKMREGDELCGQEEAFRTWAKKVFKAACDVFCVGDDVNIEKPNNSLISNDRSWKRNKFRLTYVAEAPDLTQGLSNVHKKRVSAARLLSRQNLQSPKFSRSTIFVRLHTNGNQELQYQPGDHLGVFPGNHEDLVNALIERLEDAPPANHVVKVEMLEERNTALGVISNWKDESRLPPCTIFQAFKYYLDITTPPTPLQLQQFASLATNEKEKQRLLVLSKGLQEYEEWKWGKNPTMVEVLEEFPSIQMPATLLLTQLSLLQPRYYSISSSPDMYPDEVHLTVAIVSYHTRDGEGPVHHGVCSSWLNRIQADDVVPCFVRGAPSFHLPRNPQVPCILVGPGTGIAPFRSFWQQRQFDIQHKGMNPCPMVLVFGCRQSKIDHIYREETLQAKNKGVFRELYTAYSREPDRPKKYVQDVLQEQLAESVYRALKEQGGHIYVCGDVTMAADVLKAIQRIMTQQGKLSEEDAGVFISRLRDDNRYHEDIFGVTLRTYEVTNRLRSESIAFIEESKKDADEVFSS

Sequence of 5-hydroxytryptamine receptor 6 (P50406 whole entry): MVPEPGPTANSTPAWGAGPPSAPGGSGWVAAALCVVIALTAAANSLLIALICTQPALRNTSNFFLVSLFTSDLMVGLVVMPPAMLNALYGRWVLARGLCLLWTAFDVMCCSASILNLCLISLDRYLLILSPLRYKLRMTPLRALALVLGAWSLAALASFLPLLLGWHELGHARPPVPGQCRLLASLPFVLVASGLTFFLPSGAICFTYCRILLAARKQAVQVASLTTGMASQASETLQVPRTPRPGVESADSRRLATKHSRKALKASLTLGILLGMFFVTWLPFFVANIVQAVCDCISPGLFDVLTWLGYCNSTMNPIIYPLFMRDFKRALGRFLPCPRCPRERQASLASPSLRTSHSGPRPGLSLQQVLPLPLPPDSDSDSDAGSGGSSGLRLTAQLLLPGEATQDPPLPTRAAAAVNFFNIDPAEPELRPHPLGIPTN

Molecule | IC50 [1] | Ki [1] | IC50 [2] | Ki [2] | IC50 [3] | Ki [3] | IC50 ([4]; read-out: IC50) [µM] | Ki ([4]; read-out: Ki) [nM] | IC50 (Glycine receptor) | Ki (Glycine receptor) | IC50 (Adenosine receptor A1) | Ki (Adenosine receptor A1) | IC50 (Nitric oxide synthase 1) | Ki (Nitric oxide synthase 1) | IC50 [4]
THIMEROSAL | Not Active | Not Active | Not Active | Not Active | Not Active | Not Active | 5.94 | 2760 | Not Active | Not Active | Not Active | Not Active | Not Active | Not Active | 
CNS(=O)(=O)Cc1ccc2[nH]cc(CCN(C)C)c2c1 | Not Active |  | Not Active | Not Active | Not Active | Not Active |  |  | Not Active |  | Not Active |  | Not Active |  | Not Active
C[C@@H]1C[C@H]2[C@@H]3CCC4=CC(=O)C=C[C@]4(C)C3=CC[C@]2(C)[C@H]1C(=O)CN1CCN(c2cc(N3CCCC3)nc(N3CCCC3)n2)CC1 [TIRILAZAD] | Not Active |  | Not Active | Not Active | Not Active | Not Active |  |  | Not Active |  | Not Active |  | Not Active |  | Not Active
NC[C@H]1O[C@H](O[C@H]2[C@H](O)[C@@H](O[C@H]3O[C@H](CO)[C@@H](O)[C@H](N)[C@H]3O)[C@H](N)C[C@@H]2N)[C@H](N)C[C@@H]1O [TOBRAMYCIN] | Not Active |  | Not Active | Not Active | Not Active | Not Active |  |  | Not Active |  | Not Active |  | Not Active |  | Not Active
CN[C@@H]1[C@H](O)[C@H](NC)[C@H]2O[C@@]3(O)C(=O)C[C@@H](C)O[C@H]3O[C@@H]2[C@H]1O [SPECTINOMYCIN] | Not Active |  | Not Active | Not Active | Not Active | Not Active |  |  | Not Active |  | Not Active |  | Not Active |  | Not Active
CO[C@H]1C[C@@H]2CC[C@@H](C)[C@@](O)(O2)C(=O)C(=O)N2CCCC[C@H]2C(=O)O[C@H]([C@H](C)C[C@@H]2CC[C@@H](O)[C@H](OC)C2)CC(=O)[C@H](C)/C=C(\C)[C@@H](O)[C@@H](OC)C(=O)[C@H](C)C[C@H](C)/C=C/C=C/C=C/1C [SIROLIMUS] | Not Active |  | Not Active | Not Active | Not Active | Not Active |  |  | Not Active |  | Not Active |  | Not Active |  | Not Active
O=P(O)(O)C(O)(Cc1cccnc1)P(=O)(O)O [RISEDRONIC ACID] | Not Active |  | Not Active | Not Active | Not Active | Not Active |  |  | Not Active |  | Not Active |  | Not Active |  | Not Active
COc1ccc(CN2CCNCC2)c(OC)c1OC [TRIMETAZIDINE] | Not Active |  | Not Active | Not Active | Not Active | Not Active |  |  | Not Active |  | Not Active |  | Not Active |  | Not Active
